Data published in the CheMixHub viscosity set.
Values joined by “and” are separate entries in the source; they are usually repeats but may differ in a detail not shown here. Identical values can stand only once. ± gives the uncertainty stated by the source.

Tests used:
[1] = xn = mol fraction of the nth substance listed

Which results are given for `O=C(OCc1ccccc1)c1ccccc1`?
viscosity (298.15 K, 101 kPa): 8.454 ± 0.23 mPa·s and 8.45 ± 0.23 mPa·s; viscosity (313.15 K, 101.33 kPa): 5.04 ± 0.05 mPa·s

For `[Cl-].[Cl-].[Cl-].[Cl-].[Ti+4]`, which viscosity (293.15 K, 101 kPa) is on record?
Its viscosity is 0.827 ± 0.014 mPa·s.

What about the viscosity (313.15 K, 101 kPa) of the same molecule?
Its viscosity is 0.702 ± 0.012 mPa·s.

Which viscosity (293.15 K, 100 kPa) does the source give for `c1ccc2c(c1)CCCC2` here?
The viscosity was 2.195 ± 0.047 mPa·s and 2.2 ± 0.09 mPa·s.

What about the viscosity (293.15 K, 102 kPa) of the same molecule?
The viscosity was 2.25 ± 0.03 mPa·s.

What about the viscosity (298.15 K, 100 kPa) of the same molecule?
The viscosity was 1.985 ± 0.042 mPa·s and 1.99 ± 0.08 mPa·s.

What about the viscosity (298.15 K, 101 kPa) of the same molecule?
Its viscosity is 1.985 ± 0.026 mPa·s.

What about the viscosity (298.15 K, 101.33 kPa) of the same molecule?
Its viscosity is 1.968 ± 0.012 mPa·s.

What about the viscosity (303.15 K, 100 kPa) of the same molecule?
Its viscosity is 1.807 ± 0.038 mPa·s and 1.81 ± 0.07 mPa·s.

What about the viscosity (303.15 K, 101.33 kPa) of the same molecule?
Its viscosity is 1.778 ± 0.011 mPa·s.

And the viscosity (303.15 K, 102 kPa)?
Its viscosity is 1.85 ± 0.02 mPa·s.

What about the viscosity (308.15 K, 100 kPa) of the same molecule?
The viscosity was 1.654 ± 0.035 mPa·s and 1.66 ± 0.07 mPa·s.

And the viscosity (308.15 K, 101.33 kPa)?
Its viscosity is 1.612 ± 0.01 mPa·s.

And the viscosity (313.15 K, 100 kPa)?
Its viscosity is 1.521 ± 0.032 mPa·s and 1.52 ± 0.06 mPa·s.

And the viscosity (313.15 K, 101.33 kPa)?
The viscosity was 1.473 ± 0.009 mPa·s.

What about the viscosity (318.15 K, 100 kPa) of the same molecule?
The viscosity was 1.403 ± 0.03 mPa·s and 1.4 ± 0.06 mPa·s.

What about the viscosity (323.15 K, 100 kPa) of the same molecule?
Its viscosity is 1.301 ± 0.028 mPa·s and 1.3 ± 0.05 mPa·s.

Which results are given for `CCOC(=O)CCl` + c1ccccc1?
viscosity ([1]; 298.15 K, 101.3 kPa, x1 = 0.0985): 0.634 ± 0.006 mPa·s; viscosity ([1]; 298.15 K, 101.3 kPa, x1 = 0.1983): 0.659 ± 0.007 mPa·s; viscosity ([1]; 298.15 K, 101.3 kPa, x1 = 0.2974): 0.694 ± 0.007 mPa·s; viscosity ([1]; 298.15 K, 101.3 kPa, x1 = 0.3925): 0.734 ± 0.007 mPa·s; viscosity ([1]; 298.15 K, 101.3 kPa, x1 = 0.5049): 0.781 ± 0.007 mPa·s; viscosity ([1]; 298.15 K, 101.3 kPa, x1 = 0.6023): 0.834 ± 0.008 mPa·s; viscosity ([1]; 298.15 K, 101.3 kPa, x1 = 0.696): 0.886 ± 0.008 mPa·s; viscosity ([1]; 298.15 K, 101.3 kPa, x1 = 0.7994): 0.949 ± 0.008 mPa·s; viscosity ([1]; 298.15 K, 101.3 kPa, x1 = 0.8998): 1.019 ± 0.009 mPa·s; viscosity ([1]; 303.15 K, 101.3 kPa, x1 = 0.0985): 0.592 ± 0.006 mPa·s; viscosity ([1]; 303.15 K, 101.3 kPa, x1 = 0.1983): 0.616 ± 0.006 mPa·s; viscosity ([1]; 303.15 K, 101.3 kPa, x1 = 0.2974): 0.649 ± 0.007 mPa·s; viscosity ([1]; 303.15 K, 101.3 kPa, x1 = 0.3925): 0.687 ± 0.007 mPa·s; viscosity ([1]; 303.15 K, 101.3 kPa, x1 = 0.5049): 0.731 ± 0.007 mPa·s; viscosity ([1]; 303.15 K, 101.3 kPa, x1 = 0.6023): 0.779 ± 0.007 mPa·s; viscosity ([1]; 303.15 K, 101.3 kPa, x1 = 0.696): 0.825 ± 0.008 mPa·s; viscosity ([1]; 303.15 K, 101.3 kPa, x1 = 0.7994): 0.883 ± 0.008 mPa·s; viscosity ([1]; 303.15 K, 101.3 kPa, x1 = 0.8998): 0.948 ± 0.009 mPa·s; viscosity ([1]; 308.15 K, 101.3 kPa, x1 = 0.0985): 0.549 ± 0.006 mPa·s; viscosity ([1]; 308.15 K, 101.3 kPa, x1 = 0.1983): 0.574 ± 0.006 mPa·s; viscosity ([1]; 308.15 K, 101.3 kPa, x1 = 0.2974): 0.605 ± 0.006 mPa·s; viscosity ([1]; 308.15 K, 101.3 kPa, x1 = 0.3925): 0.64 ± 0.007 mPa·s; viscosity ([1]; 308.15 K, 101.3 kPa, x1 = 0.5049): 0.681 ± 0.007 mPa·s; viscosity ([1]; 308.15 K, 101.3 kPa, x1 = 0.6023): 0.723 ± 0.007 mPa·s; viscosity ([1]; 308.15 K, 101.3 kPa, x1 = 0.696): 0.765 ± 0.007 mPa·s; viscosity ([1]; 308.15 K, 101.3 kPa, x1 = 0.7994): 0.82 ± 0.008 mPa·s; viscosity ([1]; 308.15 K, 101.3 kPa, x1 = 0.8998): 0.878 ± 0.008 mPa·s

What does the source list for `COC(=O)c1ccccc1` + c1ccccc1?
viscosity ([1]; 303.15 K, 101 kPa, x1 = 0.0773): 0.613 ± 0.011 mPa·s; viscosity ([1]; 303.15 K, 101 kPa, x1 = 0.1534): 0.675 ± 0.011 mPa·s; viscosity ([1]; 303.15 K, 101 kPa, x1 = 0.2362): 0.75 ± 0.01 mPa·s; viscosity ([1]; 303.15 K, 101 kPa, x1 = 0.3252): 0.835 ± 0.012 mPa·s; viscosity ([1]; 303.15 K, 101 kPa, x1 = 0.4217): 0.929 ± 0.012 mPa·s; viscosity ([1]; 303.15 K, 101 kPa, x1 = 0.5176): 1.043 ± 0.012 mPa·s; viscosity ([1]; 303.15 K, 101 kPa, x1 = 0.6241): 1.165 ± 0.013 mPa·s; viscosity ([1]; 303.15 K, 101 kPa, x1 = 0.7379): 1.305 ± 0.013 mPa·s; viscosity ([1]; 303.15 K, 101 kPa, x1 = 0.8662): 1.482 ± 0.014 mPa·s; viscosity ([1]; 313.15 K, 101 kPa, x1 = 0.0773): 0.543 ± 0.011 mPa·s; viscosity ([1]; 313.15 K, 101 kPa, x1 = 0.1534): 0.588 ± 0.011 mPa·s; viscosity ([1]; 313.15 K, 101 kPa, x1 = 0.2362): 0.645 ± 0.011 mPa·s; viscosity ([1]; 313.15 K, 101 kPa, x1 = 0.3252): 0.71 ± 0.01 mPa·s; viscosity ([1]; 313.15 K, 101 kPa, x1 = 0.4217): 0.784 ± 0.012 mPa·s; viscosity ([1]; 313.15 K, 101 kPa, x1 = 0.5176): 0.874 ± 0.012 mPa·s; viscosity ([1]; 313.15 K, 101 kPa, x1 = 0.6241): 0.985 ± 0.012 mPa·s; viscosity ([1]; 313.15 K, 101 kPa, x1 = 0.7379): 1.107 ± 0.013 mPa·s; viscosity ([1]; 313.15 K, 101 kPa, x1 = 0.8662): 1.245 ± 0.013 mPa·s
